Results from patent US20160090556A1, “PRODUCTS COMPRISING MALODOR REDUCTION MATERIALS” (The Procter & Gamble Company, priority 2014, published 2016).

Experiment: Liquid dish neat product liquid-air partition coefficient
Type: physicochemical
Conditions: for Comment Code: Log of liquid dish neat product liquid-air partition coefficient: code letters K, L

Row | SMILES | Log of liquid dish neat product liquid-air partition coefficient (Comment Code K/L) | Comment Code: Log of liquid dish neat product liquid-air partition coefficient
1 | c1ccc(CCOC2CCCCC2)cc1 [Material 953] | K (Log of liquid dish neat product liquid-air partition coefficient greater than or equal to −7) | –
2 | CCC(C)C(=O)OCCc1ccccc1 (stereo not drawn) [Material 954] | K (Log of liquid dish neat product liquid-air partition coefficient greater than or equal to −7) | –
3 | OCCc1ccccc1 [Material 955] | K (Log of liquid dish neat product liquid-air partition coefficient greater than or equal to −7) | –
4 | O=COCCc1ccccc1 [Material 956] | – | K (Log of liquid dish neat product liquid-air partition coefficient greater than or equal to −7)
5 | CC(C)C(=O)OCCc1ccccc1 [Material 958] | – | K (Log of liquid dish neat product liquid-air partition coefficient greater than or equal to −7)
6 | C/C=C(\C)C(=O)OCCc1ccccc1 [Material 960] | – | K (Log of liquid dish neat product liquid-air partition coefficient greater than or equal to −7)
7 | C=C(C)C(=O)OCCc1ccccc1 [Material 971] | – | K (Log of liquid dish neat product liquid-air partition coefficient greater than or equal to −7)
8 | CC(C)c1ccc(CC=O)cc1 [Material 977] | – | K (Log of liquid dish neat product liquid-air partition coefficient greater than or equal to −7)
9 | CC(C)C1=CCC(C)(O)CC1 (stereo not drawn) [Material 982] | K (Log of liquid dish neat product liquid-air partition coefficient greater than or equal to −7) | –
10 | COc1ccc(CC(C)=O)cc1 [Material 983] | – | K (Log of liquid dish neat product liquid-air partition coefficient greater than or equal to −7)
11 | CC1=CCC(/C=C/C(C)(C)C(C)O)C1(C)C (stereo not drawn) [Material 985] | K (Log of liquid dish neat product liquid-air partition coefficient greater than or equal to −7) | –
12 | CC(C)(C)c1ccc(CC=O)cc1 [Material 994] | – | K (Log of liquid dish neat product liquid-air partition coefficient greater than or equal to −7)
13 | CCC(C)(C)C1CCC(O)CC1 (stereo not drawn) [Material 995] | – | K (Log of liquid dish neat product liquid-air partition coefficient greater than or equal to −7)
14 | CCC=CCC=CC=CC(=O)OCC [Material 1000] | K (Log of liquid dish neat product liquid-air partition coefficient greater than or equal to −7) | –
15 | CC(=O)CCc1ccc(O)cc1 [Material 1002] | – | K (Log of liquid dish neat product liquid-air partition coefficient greater than or equal to −7)
16 | CC1CC(C)(C)OC(Cc2ccccc2)O1 (stereo not drawn) [Material 1003] | K (Log of liquid dish neat product liquid-air partition coefficient greater than or equal to −7) | –
17 | CC1CC(C)(c2ccccc2)CO1 (stereo not drawn) [Material 1006] | K (Log of liquid dish neat product liquid-air partition coefficient greater than or equal to −7) | –

Row | SMILES | Log of liquid dish neat product liquid-air partition coefficient (Comment Code K/L) | Comment Code: Log of liquid dish neat product liquid-air partition coefficient
18 | CC1=CC[C@@H]2C3CC([C@@H]2C1)[C@@]1(C3)OC1C (stereo partly drawn) [Material 1007] | K (Log of liquid dish neat product liquid-air partition coefficient greater than or equal to −7) | K (Log of liquid dish neat product liquid-air partition coefficient greater than or equal to −7)
19 | CC(CO)CCCc1ccccc1 (stereo not drawn) [Material 1012] | K (Log of liquid dish neat product liquid-air partition coefficient greater than or equal to −7) | –
20 | CC1=CCOC(c2ccccc2)C1 (stereo not drawn) [Material 1016] | K (Log of liquid dish neat product liquid-air partition coefficient greater than or equal to −7) | –
21 | C=C[C@@](C)(O)CCC=C(C)C [Material 1017] | – | K (Log of liquid dish neat product liquid-air partition coefficient greater than or equal to −7)
22 | C=CCc1ccc2c(c1)OCO2 [Material 1021] | K (Log of liquid dish neat product liquid-air partition coefficient greater than or equal to −7) | –
23 | CC1=CC(C)C2(CCCC(C)(C)C2=O)CC1 (stereo not drawn) [Material 1022] | K (Log of liquid dish neat product liquid-air partition coefficient greater than or equal to −7) | K (Log of liquid dish neat product liquid-air partition coefficient greater than or equal to −7)
24 | CC1=CCC(CCC(C)C(C)O)C1(C)C (stereo not drawn) [Material 1023] | K (Log of liquid dish neat product liquid-air partition coefficient greater than or equal to −7) | –
25 | CC/C(=C/CC1CC=C(C)C1(C)C)CO (stereo not drawn) [Material 1024] | K (Log of liquid dish neat product liquid-air partition coefficient greater than or equal to −7) | K (Log of liquid dish neat product liquid-air partition coefficient greater than or equal to −7)
26 | CC(=CCC1CC=C(C)C1(C)C)CO (stereo not drawn) [Material 1025] | K (Log of liquid dish neat product liquid-air partition coefficient greater than or equal to −7) | –
27 | COC1CC2CC1C1CC(C=O)CC21 (stereo not drawn) [Material 1026] | K (Log of liquid dish neat product liquid-air partition coefficient greater than or equal to −7) | –
28 | COC1CC2CC1C1CC(C=O)CC21 (stereo not drawn) [Material 1027] | K (Log of liquid dish neat product liquid-air partition coefficient greater than or equal to −7) | K (Log of liquid dish neat product liquid-air partition coefficient greater than or equal to −7)
29 | CC1=CC[C@@H]2[C@@]3(C)CCCC(C)(C)[C@@H]3CC[C@@]2(C)O1 [Material 1029] | K (Log of liquid dish neat product liquid-air partition coefficient greater than or equal to −7) | K (Log of liquid dish neat product liquid-air partition coefficient greater than or equal to −7)
30 | CCCOC(=O)[C@H](C)OC(C)(C)CC [Material 1030] | – | K (Log of liquid dish neat product liquid-air partition coefficient greater than or equal to −7)
31 | CC(C)Cc1ccc(CC(C)C=O)cc1 (stereo not drawn) [Material 1033] | K (Log of liquid dish neat product liquid-air partition coefficient greater than or equal to −7) | –
32 | C=C1CC[C@@H]2[C@H]([C@H]3[C@H]1CC[C@]3(C)O)C2(C)C [Material 1035] | K (Log of liquid dish neat product liquid-air partition coefficient greater than or equal to −7) | K (Log of liquid dish neat product liquid-air partition coefficient greater than or equal to −7)
33 | CC1CCC2C(C2(C)C)C12COC(C)(C)OC2 (stereo not drawn) [Material 1036] | K (Log of liquid dish neat product liquid-air partition coefficient greater than or equal to −7) | –
